Data from patent US20110039762A1, “TARGETED ANTIMICROBIAL MOIETIES” (C3 JIAN, INC., priority 2009, published 2011).
Entries after “also recorded” stand apart in the source; their conditions may differ. Ends that are not written are not given here.

Key:
E. faecalis = assay: Kill or inhibit growth/proliferation; morphology, biofilm and growth disruption (Tables 5, 6); type: cell-based, Enterococcus faecalis; parameters: key: A: Peptide aggregates; B: Less hyphal formation; Clumps; Diffuse clumps and small polyps; F: Diffuse growth; H: Thin; I: Growth inhibition; Microcolony formation; Rippled; Small polyps; Thick; W: Halo formation on top, microlonies on bottom; also: test concentration or dose not given here
MRSA = assay: as above; type: cell-based, Methicillin-resistant Staphylococcus aureus; parameters: key: A: Peptide aggregates; B: Less hyphal formation; Clumps; Diffuse clumps and small polyps; F: Diffuse growth; H: Thin; I: Growth inhibition; Microcolony formation; Rippled; Small polyps; Thick; W: Halo formation on top, microlonies on bottom
S. epidermidis = assay: as above; type: cell-based, Staphylococcus epidermidis; parameters: key: A: Peptide aggregates; B: Less hyphal formation; Clumps; Diffuse clumps and small polyps; F: Diffuse growth; H: Thin; I: Growth inhibition; Microcolony formation; Rippled; Small polyps; Thick; W: Halo formation on top, microlonies on bottom
E. coli = assay: as above; type: cell-based, Escherichia coli; parameters: key: A: Peptide aggregates; B: Less hyphal formation; Clumps; Diffuse clumps and small polyps; F: Diffuse growth; H: Thin; I: Growth inhibition; Microcolony formation; Rippled; Small polyps; Thick; W: Halo formation on top, microlonies on bottom; also: test concentration or dose not given here
microorganisms = assay: Peptides having multiple activities (targeting/binding, antimicrobial, growth or phenotype altering)
Source text: In certain embodiments, peptides described herein can have multiple activities. Thus for example, a peptide can have both binding/targeting activity and antimicrobial activity. Such peptides can be used, e.g., in a chimeric construct, for any or all of these properties. Thus, for example, a peptide designated “B” in Table 8 can be used as a targeting peptide. If it is also designated G or M it can also be used for antimicrobial activity.

[1] = tested on: microorganisms (e.g., bacteria, yeasts, fungi); assay: Targeting peptide binding to target microorganisms (Table 3); conditions: microorganism(s) the targeting peptide binds, preferably 1x PBS
S. pneumoniae = assay: Kill or inhibit growth/proliferation; morphology, biofilm and growth disruption (Tables 5, 6); type: cell-based, Streptococcus pneumoniae; parameters: key: A: Peptide aggregates; B: Less hyphal formation; Clumps; Diffuse clumps and small polyps; F: Diffuse growth; H: Thin; I: Growth inhibition; Microcolony formation; Rippled; Small polyps; Thick; W: Halo formation on top, microlonies on bottom; also: test concentration or dose not given here
[2] = peptide binding conducted in aqueous buffers varied by peptide solubility
For Organism, effect in this document: test concentration or dose not given here.

Row | Substance | Organism, effect (E. faecalis) | Organism, effect (MRSA) | Organism, effect (S. epidermidis) | Organism, effect (E. coli) | Activities (microorganisms) | Target(s) ([1]; binding in aqueous buffers depending on peptide solubility) | Target(s) [1, 2] | Organism, effect (S. pneumoniae)
1 | PF-347: peptide having multiple activities (GIFTGVTVVVSLKHC; Peptide with targeting and/or antimicrobial activity) | E. faecalis (C) | MRSA (C) | S. epidermidis (C) | E. coli (C) | G B | – | – | –
2 | PF-374: peptide having multiple activities (chain 1 HLFFVKGMFILCQKNQINDE; chain 2 HLFFVKGMFILCQKNQINDE; Peptide with targeting and/or antimicrobial activity) | E. faecalis (C) | MRSA (M) | S. epidermidis (C) | E. coli (C) | G B | – | – | –
3 | PF-376: peptide having multiple activities (chain 1 MTVFEALMLAIAFATLIVKISNKNDKK; chain 2 MTVFEALMLAIAFATLIVKISNKNDKK; Peptide with targeting and/or antimicrobial activity) | E. faecalis (C) | MRSA (C) | S. epidermidis (C) | E. coli (C) | G B | – | – | –
4 | PF-379: peptide having multiple activities (chain 1 VFVVLFIIYLASKLLTKLFPIKK; chain 2 VFVVLFIIYLASKLLTKLFPIKK; Peptide with targeting and/or antimicrobial activity) | E. faecalis (C) | MRSA (C) | S. epidermidis (C) | E. coli (C) | G B | – | – | –
5 | PF-381: peptide having multiple activities (chain 1 QGANPCQQVGFTVNDPDCRLAKTV; chain 2 QGANPCQQVGFTVNDPDCRLAKTV; Peptide with targeting and/or antimicrobial activity) | E. faecalis (C) | MRSA (C) | S. epidermidis (C) | E. coli (R) | G B | E. coli; also recorded: P. aeruginosa; also recorded: C. jejuni | – | –
6 | PF-386: peptide having multiple activities (chain 1 FTLTLITTIVAILNYKDKKK; chain 2 FTLTLITTIVAILNYKDKKK; Peptide with targeting and/or antimicrobial activity) | E. faecalis (C) | MRSA (C) | S. epidermidis (C) | E. coli (C) | G B | – | – | –
7 | PF-396: peptide having multiple activities (LIYTILASLGVLTVLQAILGREPKAVKA; Peptide with targeting and/or antimicrobial activity) | E. faecalis (C) | MRSA (C) | S. epidermidis (S) | E. coli (C) | G B | – | S. epidermidis; also recorded: E. coli; also recorded: P. aeruginosa; also recorded: C. albicans; also recorded: E. faecalis; also recorded: C. jeikeium | –
8 | PF-398: peptide having multiple activities (ILVVLAGILLVVLSYVGISKFKMNC; Peptide with targeting and/or antimicrobial activity) | E. faecalis (C) | MRSA (C) | S. epidermidis (C) | E. coli (C) | G B | – | – | –
9 | PF-399: peptide having multiple activities (FPIISALLGAIICIAIYSFIVNRKA; Peptide with targeting and/or antimicrobial activity) | E. faecalis (C) | MRSA (C) | S. epidermidis (C) | E. coli (C) | G B | – | – | –
10 | PF-410: peptide having multiple activities (FALELIALCRNLFIVYFP; Peptide with targeting and/or antimicrobial activity) | E. faecalis (C) | MRSA (M) | S. epidermidis (C) | E. coli (S) | G B | – | – | –
11 | PF-427: peptide having multiple activities (YVLEYHGLRATQDVDAFMAL; Peptide with targeting and/or antimicrobial activity) | E. faecalis (C) | MRSA (C) | – | E. coli (C) | G B | – | M. luteus; also recorded: P. aeruginosa; also recorded: C. albicans; also recorded: C. jejuni | S. pneumoniae (R)
12 | PF-453: peptide having multiple activities (chain 1 IIQDIAHAFGY; chain 2 IIQDIAHAFGY; Peptide with targeting and/or antimicrobial activity) | – | MRSA (C) | S. epidermidis (C) | E. coli (C) | G B | – | M. luteus; also recorded: E. coli; also recorded: P. aeruginosa; also recorded: S. pneumoniae; also recorded: E. faecalis; also recorded: C. jeikeium; also recorded: C. jejuni | S. pneumoniae (C)
13 | PF-514: peptide having multiple activities (chain 1 QRFYKLFYHIDLTNEQALKLFQVK; chain 2 QRFYKLFYHIDLTNEQALKLFQVK; Peptide with targeting and/or antimicrobial activity) | E. faecalis (C) | – | S. epidermidis (C) | E. coli (R) | G B | – | S. epidermidis and E. coli and P. aeruginosa and C. albicans and MRSA and S. pneumoniae and E. faecalis and C. jeikeium | S. pneumoniae (M)
14 | PF-519: peptide having multiple activities (chain 1 YLVYSGVLATAAAF-NH2; chain 2 YLVYSGVLATAAAF-NH2) | E. faecalis (C) | MRSA (C) | – | E. coli (R) | G B | – | M. luteus; also recorded: E. faecalis; also recorded: C. jeikeium | S. pneumoniae (S)
15 | PF-532 (KFIYKYKLSFIIYKILIQTLTMELNK; Peptide with targeting and/or antimicrobial activity) | E. faecalis (C) | MRSA (C) | – | E. coli (C) | – | – | – | S. pneumoniae (C)
16 | PF-540: peptide having multiple activities (chain 1 KSILILIKVIFIGQTTIIL; chain 2 KSILILIKVIFIGQTTIIL; Peptide with targeting and/or antimicrobial activity) | – | MRSA (H) | S. epidermidis (H) | E. coli (R) | G B | – | C. albicans | S. pneumoniae (R)
